Patent US4839466A, “Insulin activity messengers” (The Rockefeller University, priority 1987, dated 1989)

Legend:
cAMP phosphodiesterase = assay: Generation of PDE messenger from liver membranes by insulin or PI-PLC; extracts assayed on cAMP phosphodiesterase; assay type: biochemical, rat
Description: These were generated from bovine liver particulate fractions by a modification of previously described methods. Particulate fraction was prepared from 100 g of bovine liver, and suspended in […] ammonium bicarbonate, pH 7.4. (Buffer A) at a final concentration of 2-4 mg protein/ml. This solution was incubated with […] for 10 min at 37° C., acidified to pH 4.0 with formic acid and sedimented at 45,000 g for 20 min. An equal volume of chloroform/methanol (2:1) was added to the supernatant, and the upper phase was aspirated and methanol was evaporated.
In the tests the results of which are tabulated above, liver membranes were treated as indicated for 10 min at 37° C., centrifuged and supernatants were extracted and purified up to and including the Dowex 50WX-4 step as described earlier herein under "Experimental Frocedures".
Partially purified extracts were assayed for ability to modulate cAMP phosphodiesterase. Basal activity was 56.2 pmoles/mg protein^-1 -min^-1.

BC3 Hl cells = assay: Diacylglycerol and phosphatidic acid production in labeled BC3 Hl myocytes; assay type: cell-based, murine
Description: FIG. 12--Time Course of Diacylglycerol and Phosphatidic Acid Production in Response to Insulin. Myocytes were incubated for 20 hrs. in serum free DMEM with [9,10^3 H]myristic acid (New England Nuclear), complexed 1:1 to bovine serum albumin. Insulin was added to cells in fresh media for the designated intervals, and reactions were stopped by removal of media and addition of 1 ml chloroform/methanol/1N HCl (200:100:1). 0.6ml H2 O was added and upper aqueous phases were discarded following centrifugation at 500×g for 5 minutes. The lower, organic phases were dried under N2 and resuspended in 1 ml diethyl ether followed by addition of 1 […]. The upper ether phase was aspirated and the lower phase reextracted with 1 ml diethyl ether. The combined ether phases, containing diacylglycerol, were dried under N2, resuspended in chloroform and spotted on silica gel G plates which were preactivated at 60° C. for 1 hr. Plates were twice developed in petroleum ether/diethyl ether/glacial acetic acid (70:30:2). Five ug of unlabeled dimyristoylglycerol were added to each sample. Spots were visualized by iodine staining. To the lower aqueous phases from the ether extraction were added 1 ml of chloroform/methanol (2:1). Following centrifugation, the resulting upper aqueous phases were discarded and the lower organic phases dried under N2, resuspended in chloroform/methanol/H2 O (9:7:2) and spotted on "soft plus" silica gel plates. These were developed in chloroform/pyridine/70% formic acid (50:30:7), and phosphatidic acid was identified by an iodine stained standard. Lipids were scraped and radioactivity determined in a liquid scintillation counter.
BC3 Hl cells were cultured on collagen coated multiwell plates or petri dishes in Dulbecco's minimal essential medium (DMEM) supplemented with 20% Nu serum or 10% fetal calf serum. Cells were grown to maximal density and confluence, at which time they become responsive to insulin. Radiolabeled precursors were added for 20 hrs. in serum-free medium. [^3 H]Myristic and arachidonic acids were complexed 1:1 to bovine serum albumin prior to addition.
Following preincubations with the appropriate isotopes, cells were resuspended in DMEM without serum and treated with 10 nM insulin at the designated intervals. Reactions were terminated by the addition of 1 ml chloroform/methanol/1N HCl (200:100:1), followed by 0.5 ml 10 mM formic acid. Following centrifugation at 500 x g for 5 min., the upper phase was discarded. For phospholipid analyses, the lower, organic phase was dried under N2, resuspended in chloroform/methanol/H2 O (9:7:2) and spotted on oxalate impregnated silica gel G plates. These were sequentially developed in chloroform/acetone/methanol/glacial acidic acid/H2 O (10:4:2:2:1) and chloroform/methanol/4N NH4 OH (45:35:10). One cm regions were scraped and eluted with chloroform/methanol (2:1) and counted. Phosphoinositide standards were identified by iodine staining.
For analysis of neutral lipids, the chloroform/methanol organic phases were dried under N2 and resuspended in 1 ml diethyl ether followed by addition of 1 ml 50 mM formic acid. The upper ether phase was aspirated and the lower aqueous phase was reextracted with 1 ml diethyl ether. The pooled ether phases were dried under N2, resuspended in chloroform and spotted on silica gel G plates which were preactiviated at 60° C. for 1 hr. Plates were twice developed in petroleum ether/diethyl ether/glacial acetic acid (70:30:2). Five ug of unlabeled dimyristoyl glycerol, myristic acid and monomyristoyl glycerol were added as carriers to each sample.

Adenylate Cyclase = assay: Generation of an enzyme modulator from liver plasma membranes, adenylate cyclase readout; assay type: biochemical, rat
Description: Purification of the Enzyme Modulator. Bovine liver particulate fraction was prepared as described previously [Saltiel A. R., (1984) "Preparation and Characterization of Putative Insulin Mediators from Liver", METHODS IN DIABETES […], eds. J. Larner, S. Pohl, I:73]. Solutions were incubated in 5 mM ammonium bicarbonate, pH 7.4 with 10 nM insulin or 1 ug/ml PI-PLC as described in the figure legends. Following incubation, solutions were acidified to pH 4.0 and centrifuged at 35,000 x g for 20 minutes. Resulting supernatants were extracted with chloroform/methanol (2:1). The upper aqueous phase was aspirated and methanol was evaporated. Enzyme modulating activities were purified as described in Publication No. 6 listed earlier herein. Briefly, the extract was chromatographed on DEAE-Cellulose and eluted with 0.25M triethylamine (TEA)-formate, pH 3.75. This was followed by chromatography on C-18 reversed phase resin, in the same buffer, followed by Dowex 50W X-4 in 50 mM TEA-formate, pH 3.0. The resulting eluate was lyophilized, resuspended in 50 mM TEA-formate, pH 4.5 and sequentially chromatographed on QAE-Sephadex, SAX HPLC and a P-2 gel filtration column. Only the cyclic inositol phosphate derivative residing in Peak I was examined.
Enzyme Assays. The low Km cAMP PDE was assayed in a rat adipocyte particulate fraction as previously described [Saltiel, A. R., Steigerwalt,R. W., (1986) "Purification of Putative Insulin-Sensitive cAMP Phosphodiesterase or its Catalytic Domain From Rat Adipocytes", DIABETES, 35:698] and as later modified in Publication No. 6. Activity was linear throughout 20 min. and proportional to protein concentration. Only the low Km species of the enzyme was present in this fraction. PDH activity was assayed in liver mitoplasts after preincubation with ATP as previously described [Saltiel et al., (1982) PROC. NATL. ACAD. SCI. U.S.A., 79:3513.]. Adenylate cyclase activity was also assayed in purified adipocyte plasma membranes. For all enzyme assays, variability was less than 5%.
Liver membranes were treated with or without 10 nM insulin or 1 ug/ml PI-PLC for 10 min. at 37° C. Following cetrifugation, the supernatants were extracted and purified up to and including the SAX HPLC step. Purified extracts were added to enzyme assays at a final dilution of 1:10. Enzyme activities were assayed with no additions or after addition of purified extracts from control, insulin or PIPPLC treated membrane. Percent of basal activity is expressed in parentheses. ^1 expressed as pmoles/mg protein-min. ^2 expressed as nmoles/mg protein-min.

Substance: Insulin: monocomponent bovine insulin
- stimulation/increase of production of PDE modulating activity from membranes (cAMP phosphodiesterase; after partial purification, PI-PLC 1.0 ug/ml): 4 fold
- PDE Activity (cAMP phosphodiesterase; extract of liver membranes treated 10 min at 37° C. (1.0 nM Insulin, PI-PLC), purified up to Dowex 50WX-4, basal 56.2, untreated membranes 78.5): 138.0 pmol mg protein^-1 min^-1
- generation of [3H]stearyl diacylglycerol (BC3 Hl cells): no detectable effect
- change in [3H]myristoyl diacylglycerol (BC3 Hl cells; [3H]myristate labeled cells): rapid increase
- time of maximal increase in labeled diacylglycerol (BC3 Hl cells; [3H]myristate labeled cells): 1 min
- change in [3H]arachidonyl diacylglycerol (BC3 Hl cells; cells incubated with [3H]arachidonic acid): slow increase
- increase in levels of [3H]myristate phosphatidic acid (BC3 Hl cells; insulin, achieved by 5 minutes): 2 fold
- maximal increase of labeled diacylglycerol over basal (BC3 Hl cells; insulin, by 5-10 minutes): 50%
- increase in [3H]myristate diacylglycerol (BC3 Hl cells; insulin, within 1 minute): 40%
- Adenylate Cyclase activity (Adenylate Cyclase; extract as E41, no addition 272±14, control membranes 210±4): 72.0±3.7 pmoles/mg protein-min.
- inhibition of adenylate cyclase by the substance generated (Adenylate Cyclase; membranes exposed to 10 nM insulin 10 min.): 75%
